According to patent publication US11690825B2 (BOARD OF REGENTS, THE UNIVERSITY OF TEXAS SYSTEM, priority 2016, dated 2023):
Values belong to the compound of their own block, whether it stands above or below them.

How the values were obtained:
[1] = test system: arteries (responsiveness to the constrictor activity of phenylephrine); assay: Vasoactivity bioassay: ability of 20-HETE to enhance responsiveness of arteries to phenylephrine (PE) constriction; settings: for Fold Change from 20-HETE: negative values = 20-HETE antagonists, positive values = agonists
[2] = test system: ACE; assay: ACE transcription (mRNA) in endothelial cells; type: cell-based, human; settings: EC
[3] = test system: EGFR; assay: EGFR tyrosine phosphorylation and c-Src association in EC
[4] = target: T1, GPR75 (Homo sapiens, UniProt O95800); assay: GPR75 immunoprecipitation in EC (HMVEC); type: cell-based; design: endogenous in cells; host or cells: HMVEC (human microvascular endothelial cells); EA.hy926 lysate is also mentioned; settings: 10 nM for 5 min
From the text: Immunoprecipitation of GPR75 in EC further indicated its association with Gαq/11, GIT1 and HIC-5 (FIG. 11a). […] No change in GPR75-Gαq/11 association was detected in EC (FIG. 11b).
Immunoprecipitation. […] Western Blot Analysis.
Target sequence in this assay (O95800 whole entry): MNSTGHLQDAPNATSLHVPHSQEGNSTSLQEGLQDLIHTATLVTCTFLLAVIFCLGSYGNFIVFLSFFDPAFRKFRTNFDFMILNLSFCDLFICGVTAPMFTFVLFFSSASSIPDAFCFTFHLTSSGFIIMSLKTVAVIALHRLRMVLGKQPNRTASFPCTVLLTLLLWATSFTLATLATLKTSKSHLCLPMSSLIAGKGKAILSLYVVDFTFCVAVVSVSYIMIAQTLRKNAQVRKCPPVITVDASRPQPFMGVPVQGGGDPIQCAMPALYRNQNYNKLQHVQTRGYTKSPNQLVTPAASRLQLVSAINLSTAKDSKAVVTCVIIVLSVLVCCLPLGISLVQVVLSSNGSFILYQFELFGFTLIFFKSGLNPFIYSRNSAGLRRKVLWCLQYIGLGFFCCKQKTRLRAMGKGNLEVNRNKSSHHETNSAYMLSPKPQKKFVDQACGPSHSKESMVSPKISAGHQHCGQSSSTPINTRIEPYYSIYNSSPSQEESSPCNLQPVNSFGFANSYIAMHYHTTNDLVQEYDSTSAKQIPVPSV
Target sequence in this assay (Q9Y2X7 whole entry partner): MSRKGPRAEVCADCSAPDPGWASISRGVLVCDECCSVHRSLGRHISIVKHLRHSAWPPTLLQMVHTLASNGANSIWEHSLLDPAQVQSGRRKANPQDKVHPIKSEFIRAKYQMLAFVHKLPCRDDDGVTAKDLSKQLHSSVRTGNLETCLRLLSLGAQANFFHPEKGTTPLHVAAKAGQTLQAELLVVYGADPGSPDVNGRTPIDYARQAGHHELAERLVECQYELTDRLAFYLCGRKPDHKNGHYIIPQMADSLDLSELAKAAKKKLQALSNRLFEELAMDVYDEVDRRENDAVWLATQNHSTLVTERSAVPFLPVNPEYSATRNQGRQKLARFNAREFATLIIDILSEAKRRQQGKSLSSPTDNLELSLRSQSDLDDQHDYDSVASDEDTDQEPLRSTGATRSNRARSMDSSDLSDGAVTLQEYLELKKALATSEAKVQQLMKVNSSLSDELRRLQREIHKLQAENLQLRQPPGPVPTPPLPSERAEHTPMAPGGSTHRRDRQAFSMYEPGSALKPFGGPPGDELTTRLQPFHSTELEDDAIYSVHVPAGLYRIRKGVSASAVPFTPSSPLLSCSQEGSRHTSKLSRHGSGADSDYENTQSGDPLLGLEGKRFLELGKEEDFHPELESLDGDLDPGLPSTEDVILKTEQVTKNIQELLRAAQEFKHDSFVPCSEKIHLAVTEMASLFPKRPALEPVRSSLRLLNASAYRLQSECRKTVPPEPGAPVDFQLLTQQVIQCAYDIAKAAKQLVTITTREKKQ

[5] = test system: TAFI, thrombin-activated fibrinolysis inhibitor; settings: endothelial cells; cited from earlier work
[6] = test system: membrane fractions of human endothelial cells (EC); assay: 20-APheDa UV crosslinking / click-chemistry band competition; type: binding; settings: excess amounts of competitor
Procedure: When incubated with membrane fractions of human endothelial cells (EC) followed by 15 min of UV (365 nm) crosslinking and 1 h incubation with the click reagent (DBCO-IRdye 800CW, LiCor), an intense band of approximately 47-49 kDa was detected (FIG. 8c).

[7] = target: T1, GPR75; assay: β-arrestin GPCR recruitment assay, GPR75 expressed in CHO cells; type: cell-based; design: expressed in transfected cells; host or cells: CHO cells
From the text: β-arrestin represents a robust and widely used screening technology for GPCR-ligand pairing. GPCR-mediated β-arrestin recruitment is also recognized as a distinct intracellular signaling pathway, and ligand-receptor interactions may show a bias toward β-arrestin over classical GPCR signaling pathways.
Target sequence in this assay (O95800 whole entry): as the sequence (O95800 whole entry) above

[8] = test system: NO bioavailability and ACE expression; settings: cited from earlier work
[9] = test system: mouse models of hypertension; assay: DOX mouse model of hypertension: blood pressure, ACE expression, vascular remodeling; type: in vivo
Procedure: Systolic blood pressure measurements were taken using the CODA tail-cuff system (Kent Scientific), which utilizes volume pressure recording sensor technology. Mice were acclimated to the machine for one week prior to day 0 and blood pressure was monitored throughout the length of the experiment. […] At the end of the experiment, mice were anesthetized with ketamine (70 mg/kg) and xylazine (70 mg/kg) and laporotomy was performed. Preglomerular arteries were microdissected and collected for western blot analysis, lipid extraction and functional studies. Measurements of Media Thickness, Media to Lumen Ratio, and Medial Cross-Sectional Area (CSA) Segments of renal interlobar arteries were dissected and mounted on a pressurized myograph and equilibrated for 1 h in oxygenated krebs buffer at 37° C. The operator was blinded to treatments except for the blood pressure range of the animal. Lumen diameters from normotensive animals were determined at 100 mmHg and hypertensive animals at 140 mmHg. Measurements of outer diameter (OD) and inner diameter (ID) under passive conditions were used to calculate media thickness [(OD−ID)/2], media to lumen ratio (OD−ID)/ID], and medial cross-sectional area [CSA=(π/4)×(OD2−ID2)] […] Expression of ACE. […] SDS-polyacrylamide gels were transferred to Tran-Blot Turbo Mini PVDF membranes (Bio-Rad, Hercules, Calif.) followed by blocking buffer (Li-Cor, Lincoln, Nebr.) and subsequent incubation with primary and secondary antibodies.

[10] = test system: Cyp4a14−/− mice; assay: High-fat diet in Cyp4a14−/− mice overexpressing 20-HETE; type: in vivo, mouse
[11] = test system: JCR rats; assay: Coronary collateral growth in rat model of metabolic syndrome; type: in vivo; settings: JCR rats compared with SD rats
[12] = Water solubility; type: physicochemical
From the text: As used herein, the term “water soluble” means that the compound dissolves in water at least to the extent of 0.010 mole/liter or is classified as soluble according to literature precedence.

[13] = Cyp4a14−/− mice on a high-fat diet

Compound: [N-]=[N+]=N[C@H](CO)CCC/C=C\CCCCCCC/C=C\CCCC(=O)[O-].[Na+] [Analog 5, Sodium 19(S)-azido-20-hydroxyeicosa-5(Z),14(Z)-dienoate]
Fold Change from 20-HETE ([1]; fold change of EC50 to PE): 0.16

Compound: Sodium 20-azido-19(R)-hydroxyeicosa-5(Z),14(Z)-dienoate [Analog 3]
Fold increase/decrese from 20-HETE ([1]; Table 2, fold change of EC50 to PE): −6.78

Compound: CC(O)CCC/C=C\CCCCCCCCCCCCC(=O)NCC(=O)[O-].[Na+] (centres unmarked) [Analog 14, Sodium (19-hydroxyeicosa-14(Z)-enoyl)glycinate]
Fold Change from 20-HETE ([1]; fold change of EC50 to PE): −2.56

Compound: C[C@@H](O)CCC/C=C\CCCCCCC/C=C\CCCC(=O)[O-].[Na+] [Analog 2, 19(R)-Hydroxyeicosa-5(Z),14(Z)-dienoate]
Fold Change from 20-HETE ([1]; fold change of EC50 to PE): −0.85

Compound: [N-]=[N+]=NC[C@@H](O)CCC/C=C\CCCCCCC/C=C\CCCC(=O)NS(=O)(=O)c1ccc(NC(=O)CCc2ccc(C(=O)c3ccccc3)cc2)cc1 [PCL, 20-azido-N-((4-(3-(4-benzoylphenyl)propanamido)phenyl)sulfonyl)-19(S)-hydroxyeicosa-5(Z),14(Z)-dienamide]
block of 20-HETE-mediated sensitization of PE vasoconstriction, change of EC50 to PE ([1]; FIG. 8b): 4 fold | Fold Change from 20-HETE ([1]; fold change of EC50 to PE): −3.28

Compound: C[C@H](O)CCC/C=C\CCCCCCC/C=C\CCCC(=O)N[C@@H](CC(=O)[O-])C(=O)[O-].[Na+].[Na+] [Analog 9, disodium (19(S)-hydroxyeicosa-5(Z),14(Z)-dienoyl)-L-aspartate]
Fold Change from 20-HETE ([1]; fold change of EC50 to PE): −0.59

Compound: CCL5: a proposed GPR75 ligand
ACE transcription (ACE mRNA) [2]: did not induce

GPR75-HIC-5 dissociation [4]: 60% | GPR75 activation (β-arrestin recruitment) [7]: activated GPR75
Compound: O=C(O)CCC/C=C\C/C=C\C/C=C\C/C=C\CCCCCO [Analog 20-HETE, 20-hydroxyeicosa-5(Z),8(Z),11(Z),14(Z)-tetraenoic acid]
association of c-Src with EGFR ([3]; EC): increased | association of c-Src with GIT1 ([3]; EC): decreased | increase of tyrosine phosphorylation of EGFR ([3]; EC transduced with control siRNA): 1.99±0.16 fold | increase in EGFR phosphorylation ([3]; FIG. 12d): 2-3 fold | induction of TAFI expression [5]: 2-3 fold | ACE transcription (ACE mRNA) [2]: increase in ACE mRNA | competition with formation of the 47-49 kDa 20-APheDa band [6]: competed with | concentration range of maximal changes in NO bioavailability and ACE expression [8]: 5 to 10 nmol/L

Compound: CC(O)CCC/C=C\CCCCCCCCCCCCC(=O)[O-].[Na+] (centres unmarked) [Analog 12, Sodium 19-hydroxyeicosa-14(Z)-enoate]
Fold Change from 20-HETE ([1]; fold change of EC50 to PE): 0.79

Compound: [N-]=[N+]=NC[C@H](O)CCC/C=C\CCCCCCC/C=C\CCCC(=O)[O-].[Na+] [Analog 3, Sodium 20-azido-19(R)-hydroxyeicosa-5(Z),14(Z)-dienoate]
Fold Change from 20-HETE ([1]; fold change of EC50 to PE): −5.69

Compound: CCC(O)CC/C=C\CCCCCCC/C=C\CCCC(=O)NCC(=O)[O-].[Na+] (centres unmarked) [Analog 16, Sodium (18-hydroxyeicosa-5(Z),14(Z)-dienoyl)glycinate]
Fold Change from 20-HETE ([1]; fold change of EC50 to PE): −1.13

Compound: [N-]=[N+]=N[C@@H](CO)CCC/C=C\CCCCCCC/C=C\CCCC(=O)[O-].[Na+] [Analog 6, Sodium 19(R)-azido-20-hydroxyeicosa-5(Z),14(Z)-dienoate]
Fold Change from 20-HETE ([1]; fold change of EC50 to PE): 0.50

Compound: C[C@H](O)CCC/C=C\CCCCCCC/C=C\CCCC(=O)[O-].[Na+] [Analog 1, sodium 19(S)-hydroxyeicosa-5(Z),14(Z)-dienoate]
Fold Change from 20-HETE ([1]; fold change of EC50 to PE): −0.68

Compound: CC(O)CCCCCCCCCCCC/C=C\CCCC(=O)[O-].[Na+] (centres unmarked) [Analog 11, Sodium 19-hydroxyeicosa-5(Z)-enoate]
Fold Change from 20-HETE ([1]; fold change of EC50 to PE): −1.66

Compound: C[C@@H](O)CCC/C=C\CCCCCCC/C=C\CCCC(=O)N[C@@H](CC(=O)[O-])C(=O)[O-].[Na+].[Na+] [Analog 10, Disodium (19(R)-hydroxyeicosa-5(Z),14(Z)-dienoyl)-L-aspartate]
Fold Change from 20-HETE ([1]; fold change of EC50 to PE): −2.03

Compound: C[C@@H](O)CCC/C=C\CCCCCCC/C=C\CCCC(=O)NCC(=O)[O-].[Na+] [Analog 8, Sodium (19(R)-hydroxyeicosa-5(Z),14(Z)-dienoyl)glycinate]
Fold Change from 20-HETE ([1]; fold change of EC50 to PE): −4.67

Compound: O=C([O-])CCC/C=C\CCCCCCC/C=C\CCCCO.[Na+] [Analog 19, Sodium 19-hydroxynonadeca-5(Z),14(Z)-dienoate]
Fold Change from 20-HETE ([1]; fold change of EC50 to PE): −0.68

Compound: CC(O)CCCCCCCCCCCC/C=C\CCCC(=O)NCC(=O)[O-].[Na+] (centres unmarked) [Analog 13, Sodium (19-hydroxyeicosa-5(Z)-enoyl)glycinate]
Fold Change from 20-HETE ([1]; fold change of EC50 to PE): −2.19

Compound: O=C([O-])CNC(=O)CCC/C=C\CCCCCCC/C=C\CCCCO.[Na+] [Analog 20, sodium (19-hydroxynonadeca-5(Z),14(Z)-dienoyl)glycinate]
Fold Change from 20-HETE ([1]; fold change of EC50 to PE): −0.74

Compound: C[C@H](O)CCC/C=C\CCCCCCC/C=C\CCCC(=O)NCC(=O)[O-].[Na+] [Analog 7, Sodium (19(S)-hydroxyeicosa-5(Z),14(Z)-dienoyl)glycinate]
Fold Change from 20-HETE ([1]; fold change of EC50 to PE): −3.46

Compound: O=C(O)CNC(=O)CCCC/C=C\CCCCCCC/C=C\CCCCO [20-6,15-HEDGE, 2-(20-hydroxyeicosa-6(Z),15(Z)-dienamido)acetic acid]
ACE expression in preglomerular microvessels (PGMV) ([9]; compared with lisinopril and losartan): decreases ACE expression | systolic blood pressure ([9]; in combination with DOX, several time points): decreases systolic blood pressure as effectively as the ACE inhibitors lisinopril and losartan | vascular remodeling ([9]; mouse, in vivo): decreasing vascular remodeling

Compound: CC(C)(O)CCC/C=C\CCCCCCC/C=C\CCCC(=O)NCC(=O)[O-].[Na+] [Analog 18, Sodium 2-(19-hydroxy-19-methyleicosa-5(Z),14(Z)-dienamido)acetate]
Fold Change from 20-HETE ([1]; fold change of EC50 to PE): −1.16

water solubility [12]: water-soluble
Compound: COCCOCCOCCOCCOCCOCCOC(=O)CCCC/C=C\CCCCCCC/C=C\CCCCO [20-6,15-SOLA, 2,5,8,11,14,17-hexaoxanonadecan-19-yl 20-hydroxyeicosa-6(Z),15(Z)-dienoate]
high-fat diet-induced hyperglycemia ([10]; Cyp4a14−/− mice): normalized | high-fat diet-induced obesity ([10]; Cyp4a14−/− mice): attenuates | hyperinsulinemia [10, 13]: alleviates | hyperleptinemia [10, 13]: alleviates | impaired coronary collateral growth (CCG) [11]: attenuates

Compound: CCC(O)CC/C=C\CCCCCCC/C=C\CCCC(=O)[O-].[Na+] (centres unmarked) [Analog 15, Sodium 18-hydroxyeicosa-5(Z),14(Z)-dienoate]
Fold Change from 20-HETE ([1]; fold change of EC50 to PE): −2.17

Compound: CC(O)CCC/C=C\CCCCCCC/C=C\CCCc1nnn[nH]1 (centres unmarked) [Analog 21, 19-(1H-Tetrazol-5-yl)nonadeca-6(Z),15(Z)-dien-2-ol]
Fold Change from 20-HETE ([1]; fold change of EC50 to PE): −0.78

Compound: CCCCC/C=C\C[C@H](O)/C=C/C=C\C/C=C\CCCC(=O)O [12(S)-HETE, 12(S)-hydroxyeicosa-5(Z),8(Z),10(E),14(Z)-tetraenoic acid]
competition with formation of the 47-49 kDa 20-APheDa band [6]: not

Compound: [N-]=[N+]=NC[C@@H](O)CCC/C=C\CCCCCCC/C=C\CCCC(=O)[O-].[Na+] [Analog 4, sodium 20-azido-19(S)-hydroxyeicosa-5(Z),14(Z)-dienoate]
Fold Change from 20-HETE ([1]; fold change of EC50 to PE): −5.45
